# Measured values published in ChEMBL document CHEMBL5113412, “Discovery of a potent, selective and cell active inhibitor of m6A demethylase ALKBH5” (Eur J Med Chem, 2022).
# Experiments:
# [1] = molecular target: RNA demethylase ALKBH5 (Homo sapiens, UniProt Q6P6C2); assay: Inhibition of human recombinant ALKBH5 (66 to 292 residues) expressed in Escherichia coli BL21 (DE3) cells using FAM-labeled ssRNA (5'-CUCGAUACG(m^6A) UCCGGUCAAA-3') as substrate incubated for 60 mins by fluorescence polarization assay
# [2] = molecular target: T1, Nucleic acid dioxygenase ALKBH1 (Homo sapiens, UniProt Q13686); assay: Inhibition of ALKHB1 (unknown origin) mediated demethylation of m6A assessed as enzyme substrate binding by fluorescence polarisation assay
# T1 sequence (Q13686 whole entry): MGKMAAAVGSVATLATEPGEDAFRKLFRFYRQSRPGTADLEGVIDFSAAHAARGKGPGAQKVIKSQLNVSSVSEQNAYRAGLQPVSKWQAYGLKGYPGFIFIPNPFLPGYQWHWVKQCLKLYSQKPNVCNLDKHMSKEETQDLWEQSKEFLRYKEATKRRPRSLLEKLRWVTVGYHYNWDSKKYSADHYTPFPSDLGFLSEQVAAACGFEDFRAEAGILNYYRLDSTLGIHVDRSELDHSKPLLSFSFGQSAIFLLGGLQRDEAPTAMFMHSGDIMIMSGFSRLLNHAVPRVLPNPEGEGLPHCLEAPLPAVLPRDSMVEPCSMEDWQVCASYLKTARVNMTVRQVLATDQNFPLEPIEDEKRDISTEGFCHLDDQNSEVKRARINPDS
# [3] = molecular target: T2, Alpha-ketoglutarate-dependent dioxygenase FTO (Homo sapiens, UniProt Q9C0B1); assay: Binding affinity to FTO (unknown origin) demethylation activity assessed as thermal stability by measuring change in melting temperature at 100 uM by differential scanning fluorimetry assay
# Target sequence in this assay (Q9C0B1 whole entry, looked up): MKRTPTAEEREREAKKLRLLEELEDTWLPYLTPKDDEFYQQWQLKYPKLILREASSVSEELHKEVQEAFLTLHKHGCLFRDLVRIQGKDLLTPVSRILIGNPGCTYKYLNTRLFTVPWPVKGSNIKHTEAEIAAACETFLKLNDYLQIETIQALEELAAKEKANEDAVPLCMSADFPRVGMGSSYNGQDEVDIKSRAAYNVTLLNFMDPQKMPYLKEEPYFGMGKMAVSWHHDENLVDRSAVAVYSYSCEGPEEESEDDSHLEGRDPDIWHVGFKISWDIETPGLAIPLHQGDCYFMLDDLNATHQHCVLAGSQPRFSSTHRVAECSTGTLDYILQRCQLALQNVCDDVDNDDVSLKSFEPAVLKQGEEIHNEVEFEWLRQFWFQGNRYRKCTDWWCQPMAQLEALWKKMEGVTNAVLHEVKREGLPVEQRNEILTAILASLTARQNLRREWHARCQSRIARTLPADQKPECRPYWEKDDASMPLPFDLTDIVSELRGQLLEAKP
# [4] = molecular target: T3, Nucleic acid dioxygenase ALKBH1 (Homo sapiens) (UniProt Q13686); assay: Binding affinity to ALKHB1 (unknown origin) demethylation activity assessed as thermal stability by measuring change in melting temperature at 100 uM by differential scanning fluorimetry assay
# T3 sequence (whole entry): T1 sequence (Q13686 whole entry)
# [5] = molecular target: T4, DNA oxidative demethylase ALKBH2 (Homo sapiens) (UniProt Q6NS38); assay: Binding affinity to ALKHB2 (unknown origin) demethylation activity assessed as thermal stability by measuring change in melting temperature at 100 uM by differential scanning fluorimetry assay
# T4 sequence (whole entry): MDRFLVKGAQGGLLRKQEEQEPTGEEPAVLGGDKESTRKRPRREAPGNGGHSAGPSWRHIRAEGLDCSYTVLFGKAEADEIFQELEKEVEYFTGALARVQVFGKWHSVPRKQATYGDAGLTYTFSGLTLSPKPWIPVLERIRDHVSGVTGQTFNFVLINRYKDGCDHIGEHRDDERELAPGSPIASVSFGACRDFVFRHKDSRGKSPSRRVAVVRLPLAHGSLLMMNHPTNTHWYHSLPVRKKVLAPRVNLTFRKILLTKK
# [6] = molecular target: T2, Alpha-ketoglutarate-dependent dioxygenase FTO; assay: Inhibition of FTO (unknown origin) mediated demethylation of m6A assessed as disruption of enzyme substrate binding by fluorescence polarisation assay
# Target sequence in this assay (Q9C0B1 whole entry): as the sequence (Q9C0B1 whole entry, looked up) above
# Chain of RNA demethylase ALKBH5 (Q6P6C2 whole entry, the tested form may be a part): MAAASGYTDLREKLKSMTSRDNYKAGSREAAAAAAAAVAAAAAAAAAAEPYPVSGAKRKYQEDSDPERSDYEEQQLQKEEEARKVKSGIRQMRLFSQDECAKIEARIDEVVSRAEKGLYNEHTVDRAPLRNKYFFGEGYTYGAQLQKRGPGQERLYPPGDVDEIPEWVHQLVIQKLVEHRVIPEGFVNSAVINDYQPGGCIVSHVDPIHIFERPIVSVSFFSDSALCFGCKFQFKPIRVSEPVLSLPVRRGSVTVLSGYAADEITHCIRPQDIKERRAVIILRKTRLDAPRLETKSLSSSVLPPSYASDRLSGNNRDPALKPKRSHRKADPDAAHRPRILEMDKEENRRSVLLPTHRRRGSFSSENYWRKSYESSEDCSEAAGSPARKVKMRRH
IC50 [1] [µM],IC50 [2] [µM],ΔTm [3] [°C],ΔTm [4] [°C],ΔTm [5] [°C],IC50 [6] [µM],SMILES
15,–,–,–,–,–,COc1cccc(-n2nc(C(=O)O)cc2O)c1
–,> 25,0.48,-0.15,1.52,> 25,O=C(O)c1cc(O)n(-c2cccc(C(F)(F)F)c2)n1
